Measured values: patent US20110294144A1, “SCREENING METHOD” (priority 2008, published 2011)

Assays:
[1] = system: mouse primary nerve cells infected with PRKX overexpression lentivirus; experiment: Immunostaining of S214 phosphorylated tau in mouse primary nerve cells infected with PRKX overexpression lentivirus; assay type: cell-based; details: DIV12 mouse primary nerve cells, PRKX lentivirus MOI=2
Source text: DIV12 mouse primary nerve cells plated in a 48 well plate at a concentration of 3.5×10^3 cells/well were infected with PRKX overexpression lentiviruses at MOI=2. Two days later, the cells were fixed with 4% para-formaldehyde, washed with phosphate buffer, and blocked with a phosphate buffer containing 1.5% BSA and 0.1% Triton X-100. Thereafter, as a primary antibody, an anti-S214 phosphorylated tau antibody was used to label phosphorylated tau, and an anti-MAP2 monoclonal antibody (Chemicon International) was used to label nerve cells. After washing, anti-S214 phosphorylated tau antibody was stained with anti-rabbit alexafluoro594-labeled secondary antibody, and anti-MAP2 antibody was stained with anti-mouse alexafluoro488-labeled secondary antibody (Invitrogen), and they were photographed using Discovery-1. As a result, the amount of tau S214 phosphorylation decreased due to H-89.

[2] = system: H4-tau cells infected with PRKX overexpression lentivirus; experiment: Thioflavin S positive cell count (tau aggregation) in H4-tau cells infected with PRKX overexpression lentivirus; assay type: cell-based, human; details: 3 μM H-89, added three days after infection; PRKX lentivirus MOI=2.5
Description: H4-tau cells were plated in a 24 well plate at a concentration of 1×10^5 cells/well and, the next day, infected with PRKX or lacZ overexpression lentivirus at MOI=1 or 2.5. Three days later, H-89 was added to a concentration of 3 μM. The next day, the cells fixed with 4% para-formaldehyde were washed with phosphate buffer, and blocked with phosphate buffer containing 1.5% BSA and 0.1% Triton X-100. Thereafter, the cells were stained by using S214 phosphorylated tau, and anti-S214 phosphorylated tau or total tau antibody as a primary antibody and anti-rabbit Alexa Fluor 594-labeled secondary antibody as a secondary antibody. Thereafter, the cells were left standing in 0.005% aqueous thioflavin S (Sigma Ltd.) solution for 5 min, and washed twice with 70% ethanol and once with water. Furthermore, the nucleus was stained with DAPI. The stained cells were photographed by Discovery-1, and the number of DAPI positive cells and the number of thioflavin S positive cells were counted by metamorph software (Molecular Device) based on the images taken by Discovery-1. In the PRKX infected well, the number of cells stained with thioflavin S having a β sheet structure increased 2-fold at MOI=1 and 5.2-fold at MOI=2.5 as compared to lacZ infected well. By containing with a tau specific antibody, almost all thioflavin S positive images were contained with tau and S214 phosphorylated tau. […]

[3] = system: H4 cells infected with PRKX overexpression lentivirus; experiment: Cell death (DAPI positive cell count) in H4 cells infected with PRKX overexpression lentivirus; assay type: cell-based, human; details: PRKX lentivirus MOI=1
Description: H4 cells were plated in a 48 well plate at a concentration of 3.5×10^3 cells/well and, the next day, infected with PRKX or lacZ overexpression lentivirus at MOI=1. Two days later, H-89 was added at 3 or 10 μM. The next day, the cells were fixed, and the nucleus was stained with DAPI. DAPI positive cells were photographed by Discovery-1, and the number of DAPI positive cells was counted from the images by a Metamorph software. […] The cell death was suppressed by 29% or 46% by the addition of 3 μM or 10 μM H-89.

[4] = system: mouse primary nerve cells infected with PRKX overexpression lentivirus; experiment: Neurite elongation (MAP2 staining) in mouse primary nerve cells infected with PRKX overexpression lentivirus; assay type: cell-based; details: DIV14 mouse primary nerve cells, PRKX lentivirus MOI=2, forskolin 10 μM 2 days
Description: DIV14 mouse primary nerve cells were plated in a 48 well plate at a concentration of 3.5×10^3 cells/well and infected with PRKX or D172A overexpression lentivirus at MOI=2. Four days after the infection, forskolin was added at a concentration of 10 μM, and the cells were cultured for 2 days. The cells were fixed, nerve cell was labeled with anti-MAP2 monoclonal antibody as a primary antibody, anti-MAP2 antibody was stained with anti-mouse Alexa Fluor 488-labeled secondary antibody, and they were photographed by Discovery-1. The neurite elongation was measured by a metamorph software based on the images taken by Discovery-1. As a result, the decrease of the neurite elongation found with the PRKX overexpression lentivirus was suppressed by 76% by H-89.

PRKX [5] = target: T1, PRKX (Homo sapiens, UniProt P51817); details: non-patent document 3; cited from earlier work
T1 sequence (P51817 1-358): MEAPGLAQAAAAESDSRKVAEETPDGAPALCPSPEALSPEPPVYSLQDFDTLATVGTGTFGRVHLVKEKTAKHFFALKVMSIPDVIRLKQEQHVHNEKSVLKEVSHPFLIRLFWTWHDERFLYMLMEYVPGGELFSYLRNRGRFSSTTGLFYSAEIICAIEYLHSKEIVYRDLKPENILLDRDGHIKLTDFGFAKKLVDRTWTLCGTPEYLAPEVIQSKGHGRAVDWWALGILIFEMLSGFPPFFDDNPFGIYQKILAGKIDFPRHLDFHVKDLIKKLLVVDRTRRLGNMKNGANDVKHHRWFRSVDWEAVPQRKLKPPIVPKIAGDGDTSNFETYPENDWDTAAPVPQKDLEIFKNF

PRKX [6] = target: T1, PRKX; experiment: Cell-free tau S214 phosphorylation by recombinant PRKX protein, Western blot; assay type: biochemical; parameters: purchased Invitrogen; details: 30° C., 60 min
Description: To a reaction mixture (40 mM Tris-HCl (pH 7.5), 20 mM MgCl2, 0.1 mg/ml BSA, 25 μl) containing recombinant PRKX protein (Invitrogen, 4 μg/ml) and recombinant tau protein (Wako Pure Chemical Industries, Ltd., 40 μg/ml) was added H-89 solution (40 mM Tris-HCl (pH 7.5), 0.1% DMSO, 20 mM MgCl2, 0.1 mg/ml BSA, 5 μl) to a concentration during reaction of 1 or 0.1 μM. As a control, 40 mM Tris-HCl (pH 7.5), 0.1% DMSO, 20 mM MgCl2, 0.1 mg/ml BSA solution (5 μl) were added. 25 μM ATP solution (40 mM Tris-HCl (pH 7.5), 20 mM MgCl2, 0.1 mg/ml BSA) was added by 20 μl to start the reaction and the mixture was left standing at 30° C. for 60 min. An SDS sample buffer was added to quench the reaction, the protein was separated using NuPAGE 4-12% Bis-Tris gel and transferred to a PVDF membrane. Western blot was performed using an anti-S214 phosphorylated tau antibody as a primary antibody and ECL Advance Western Blotting Detection Kit, and S214 phosphorylated tau was quantified by LAS-1000 plus lumino image analyzer. […] By the addition of H-89 at a final concentration of 1 and 0.1 μM, the tau S214 phosphorylation reaction decreased to 5% and 52%, respectively, of that without the addition.

PRKX [7] = target: T1, PRKX; experiment: Western blot of S214 phosphorylated tau in H4-tau cells transfected with PRKX expression plasmid; assay type: cell-based; parameters: using change-1F and hPRKX-1R as primers to give mutant PRKX full-length DNA; expressed in transfected cells; host or cells: H4-tau cells (human H4 neuroglial cells stably expressing human tau), transiently transfected with pPRKXkai (pTARGET vector); details: 10 μM H-89 added 2 hr before cell recovery
Description: pFB-Neo-CMV-tau plasmid obtained by inserting a DNA fragment containing a wild-type human tau gene bound at the downstream of a CMV promoter into a multicloning site of pFB-neo vector (Stratagene) was transferred into H4 neuroglial cells according to the instructions of ViraPort(R) Retroviral Gene Expression System (Stratagene), and a cell confirmed to show expression of tau was used as a H4-tau cell. […] After transcription to a PVDF membrane, Western blot was performed using, as a primary antibody, an anti-S214 phosphorylated tau antibody (BioSource) for the detection of S214 phosphorylated tau, an Ab-3 antibody (Lab Vision) for the detection of total tau, and […], and according to the instructions of ECL Advance Western Blotting Detection Kit (Amarsham Bioscience), and each protein was detected by LAS-1000 plus lumino image analyzer (Fujifilm). […] The tranfected cell was dissolved in a cell lysis buffer (BioSource), the amount of S214 phosphorylated tau was measured using a human pS214 tau ELISA kit (BioSource), the amount of total tau was measured using a human total tau ELISA kit (BioSource), each according to the instructions, and the amount of phosphorylated tau in the total tau was examined. […]

PRKX [8] = target: T1, PRKX; experiment: pS214 tau / total tau ELISA in PRKX-transfected H4-tau cells; assay type: cell-based; parameters: using change-1F and hPRKX-1R as primers to give mutant PRKX full-length DNA; expressed in transfected cells; host or cells: H4-tau cells (human H4 neuroglial cells stably expressing human tau), transiently transfected with pPRKXkai (pTARGET vector); details: H-89 10-0.1 μM, 2 hr, pPRKXkai, read-out: IC50 of suppression of the amount of tau S214 phosphorylation (ELISA, phosphorylated tau in total tau)
Description: pPRKXkai and pTARGET vectors were each transferred into H4-tau cells cultured overnight in a DMEM medium containing 10% FBS, using a Fugene6 transfection reagent. One day later, H-89 was added at a concentration of 10-0.1 μM. 2 hr later, the cells were dissolved in a cell lysis buffer, the amount of S214 phosphorylated tau was measured using a human pS214 tau ELISA kit, the amount of the total tau was measured using a human total tau ELISA kit, and the amount of phosphorylated tau in the total tau was examined. As a result, the amount of tau S214 phosphorylation was suppressed at an IC50 value of 0.7 μM.

PRKX [9] = target: T1, PRKX; experiment: In-cell infrared fluorescence imaging (Odyssey) of S214 phosphorylated tau and total tau in PRKX-transfected H4-tau cells; assay type: cell-based; parameters: using change-1F and hPRKX-1R as primers to give mutant PRKX full-length DNA; expressed in transfected cells; host or cells: H4-tau cells (human H4 neuroglial cells stably expressing human tau), transiently transfected with pPRKXkai (pTARGET vector); details: H-89 10-0.1 μM, 2 hr; H4-tau cells in 96 well plate, pPRKXkai; read-out: IC50 of suppression of the amount of tau S214 phosphorylation (infrared fluorescence imaging)
Description: H4-tau cells were plated in a DMEM medium containing 10% FBS in a 96 well plate at a concentration of 1×10^4 cells/well and, the next day, pPRKXkai and pTARGET vectors were each transferred thereinto using a Fugene6 transfection reagent. One day later, H-89 was added to the medium at a concentration of 10−0.1 μM. 2 hr later, the cells were fixed with 4% para-formaldehyde (Wako Pure Chemical Industries, Ltd.), washed with phosphate buffer, and blocked with phosphate buffer containing 1.5% BSA (Sigma Aldrich) and 0.1% Triton X-100 (Wako Pure Chemical Industries, Ltd.). Thereafter, as a primary antibody, an anti-S214 phosphorylated tau antibody was used to label phosphorylated tau and an anti-tau monoclonal antibody HT-7 (Pierce Biotechnology) was used to label total tau. After washing, they were reacted with an anti-rabbit Alexa Fluor 680-labeled secondary antibody (Invitrogen) and an anti-mouse IRD800CW-labeled secondary antibody (Wako Pure Chemical Industries, Ltd.), as secondary antibodies. After washing, the amounts of S214 phosphorylated tau and total tau were detected using 2 fluorescence system infrared fluorescence Imager Odyssey (ALOKA CO., LTD.). As a result, the amount of tau S214 phosphorylation was suppressed at an IC50 value of 0.7 μM.

O=S(=O)(NCCNC/C=C/c1ccc(Br)cc1)c1cccc2cnccc12 [H-89]
amount of tau S214 phosphorylation [1]: decreased | suppression of the increase of thioflavin S stained cells [2]: 75% | suppression of cell death ([3]; 3 μM H-89): 29% | suppression of cell death ([3]; 10 μM H-89): 46% | suppression of the decrease of the neurite elongation [4]: 76% | inhibition of PRKX (PRKX [5]): inhibit PRKX | tau S214 phosphorylation reaction, % of that without the addition (PRKX [6]; H-89 final concentration 0.1 μM): 52% | tau S214 phosphorylation reaction, % of that without the addition (PRKX [6]; H-89 final concentration 1 μM): 5% | enhanced S214 phosphorylation of tau (Western blot) (PRKX [7]): enhanced phosphorylation was not found | IC50 (PRKX [8]): 700 nM | IC50 (PRKX [9]): 700 nM
